# Measured values from patent US9040714B2 (MannKind Corporation, priority 2010, dated 2015).
# Read-outs that look alike come from different tables or passages of the source.
# Assays:
# [1] = test system: IRE-1α-mediated XBP-1 splicing in human myeloma MM.1s cells; experiment: Cellular EC50: endogenous XBP-1 splicing in myeloma cells by RT-PCR (DTT stress); type: cell-based; conditions: MM1.S, read-out: EC50_av
# Procedure: Human myeloma MM.1s cells are incubated with a compound for 1.25 hours before stressing the cells with 2 mM dithiothreitol (DTT). After an additional 45 minutes (2 hours total) with compound and DTT, the cells are harvested with TRIZOL® (a mono-phasic solution of phenol and guanidine isothiocyanate), and total RNA is prepared as directed by the manufacturer (Invitrogen). Human XBP-1 is amplified by RT-PCR with the following primers, which flank the 26 base unconventional intron excised by IRE-1α:
# RT-PCR of unstressed (U) cells then generates the upper band. When cells are stressed (S) with the endoplasmic reticulum (ER) stressing agent DTT, IRE-1α is activated due to accumulating unfolded protein and the resulting RT-PCR, product is 26 base pairs shorter.
# Compounds which pass specificity assays are assayed for cellular EC50 using endogenous XBP-1 splicing in myeloma cells. XBP-1 is regulated through the excision of a 26 nucleotide intron from the XBP-1 mRNA by the highly specific endoribonuclease activity of IRE-1α. […] This splicing event is used to measure IRE-1α activity on XBP-1 mRNA in cells and tissues.
# Briefly, compounds are incubated in the presence or absence of an ER stress agent (e.g., DTT), and the ratio of XBP-1u (unspliced) to XBP-1 s (spliced) is quantified by RT-PCR. The ED50 is determined as the 50% XBP-1s to total XPB-1 levels.
# [2] = target: human IRE-1α (GST-IRE-1α) (Homo sapiens (Human), UniProt O75460); experiment: IRE-1α assay in vitro: cleavage of Cy5/BHQ2-labelled mini-XBP-1 mRNA stem-loop substrate; type: biochemical; conditions: average IC50 for inhibition of IRE-1α
# Procedure: In some embodiments IRE-la inhibitor compounds form a complex with IRE-1α. […] Other substrates also can be used to detect cleavage. See US 2007/0105123.
# A fusion protein comprising glutathione S transferase (GST) and human IRE-1α (GST-IRE-1α) obtained from a 500 ml baculovirus-infected insect cell culture can be used to measure IRE-1α activity in vitro.
# Five μl of a reaction mixture comprising IX reaction buffer (5× reaction buffer is 100 mM Hepes pH 7.5, 250 mM KOAc, 2.5 mM MgCl2), 3 mM DTT, and 0.4% polyethylene glycol water is added to each well of 384 well plates. Twenty-five nanoliters of a 1 mM test compound solution are added to test wells. Three μl of a […] IRE-1α preparation are added to each test well and to positive control wells (final concentration 5.82 ng/well). Negative control wells contain only reaction mixture and test compound.
# After spinning the plates at 1200 rpm for 30 seconds, 3 μl of an IRE-1α human mini-XBP-1 mRNA stem-loop substrate 5′-[…]-3′ (SEQ ID NO:1), labeled with the fluorescent dye Cy5 at the 5′ end and Black Hole Quencher 2 (BH2) at the 3′ end, are added to each well of a control plate. The plates are again spun at 1200 rpm for 30 seconds. Final concentrations for the assay are: 63 nM IRE-1α substrate, 5.82 ng IRE-1α protein, and 2.5 μM test compound.
# The plates are covered with lids and incubated for one hour at 30° C. The plates are then transferred to an ACQUEST™ microplate reader. Data is analyzed using data analysis software, and the percent activity of IRE-1α is calculated.
# IC50 for inhibition of IRE-1α of compounds identified in Table 1 was measured as described in EXAMPLE 35.
# [3] = average cellular EC50, XBP-1 splicing in myeloma cells
# Sequence of human IRE-1α (GST-IRE-1α) (O75460 19-977): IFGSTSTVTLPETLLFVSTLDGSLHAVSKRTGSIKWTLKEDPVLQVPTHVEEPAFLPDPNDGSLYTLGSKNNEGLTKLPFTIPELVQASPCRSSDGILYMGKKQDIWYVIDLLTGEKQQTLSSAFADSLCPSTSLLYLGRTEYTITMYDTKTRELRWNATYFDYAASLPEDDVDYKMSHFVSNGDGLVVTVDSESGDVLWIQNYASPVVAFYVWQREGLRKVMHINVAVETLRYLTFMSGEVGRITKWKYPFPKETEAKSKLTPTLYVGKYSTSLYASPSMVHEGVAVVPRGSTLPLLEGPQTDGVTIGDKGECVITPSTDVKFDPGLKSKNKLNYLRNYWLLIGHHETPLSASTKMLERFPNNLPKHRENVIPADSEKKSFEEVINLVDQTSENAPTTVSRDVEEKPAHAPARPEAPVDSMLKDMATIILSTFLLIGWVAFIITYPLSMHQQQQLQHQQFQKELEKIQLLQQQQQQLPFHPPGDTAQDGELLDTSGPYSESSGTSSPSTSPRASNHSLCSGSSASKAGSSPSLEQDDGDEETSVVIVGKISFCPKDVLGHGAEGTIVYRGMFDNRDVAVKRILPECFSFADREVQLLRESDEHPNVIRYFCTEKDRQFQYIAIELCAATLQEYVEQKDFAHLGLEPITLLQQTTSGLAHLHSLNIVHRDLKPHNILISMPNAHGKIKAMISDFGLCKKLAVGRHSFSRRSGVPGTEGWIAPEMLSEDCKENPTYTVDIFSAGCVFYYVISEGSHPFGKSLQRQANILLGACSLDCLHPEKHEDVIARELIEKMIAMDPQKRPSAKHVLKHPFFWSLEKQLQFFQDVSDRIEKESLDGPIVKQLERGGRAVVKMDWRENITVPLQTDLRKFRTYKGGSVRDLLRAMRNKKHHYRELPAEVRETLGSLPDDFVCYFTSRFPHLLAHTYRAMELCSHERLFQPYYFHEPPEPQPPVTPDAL
smiles,measurement,setting,value
Cc1c(CCC(=O)NCCN2CCOCC2)c(=O)oc2c(C=O)c(O)ccc12 [Example 201],EC50,[1]; [3],< 10 µM
same,IC50,[2],< 0.1 µM
[2H]C(=O)c1c(O)ccc2c(C)c(-c3ccc(C(=O)NCCN4CCOCC4)cc3)c(=O)oc12 [Example 116],EC50,[1]; [3],< 10 µM
same,IC50,[2],< 0.1 µM
CCc1cc2c(C)c(-c3ccc(C(=O)NCCN4CCOCC4)cc3)c(=O)oc2c(C=O)c1O [Example 117],EC50,[1],< 10 µM
same,IC50,[2],< 1 µM
O=Cc1c(O)ccc2nc(-c3ccc(C(=O)N4CCOCC4)cc3)ccc12 [Example 44],EC50,[1]; [3],< 10 µM
same,IC50,[2],< 1 µM
CN1CCN(c2ncc(C(=O)N3CCc4c(ccc(O)c4C=O)C3)s2)CC1 [Example 38],EC50,[1]; [3],> 10 µM
same,IC50,[2],< 0.1 µM
COc1cc2c(C)c(CCC(=O)N3CCN(C)CC3)c(=O)oc2c(C=O)c1O [Example 173],EC50,[1],< 10 µM
same,IC50,[2],< 0.1 µM
COc1cc2c(C)c(-c3ccc(C(=O)N4CCN(C)CC4)cc3)c(=O)oc2c(C=O)c1O [Example 111],EC50,[1]; [3],< 10 µM
same,IC50,[2],< 0.1 µM
COCCNC(=O)Cc1c(C)c2c(OC)cc(O)c(C=O)c2oc1=O [Example 176],EC50,[1]; [3],< 10 µM
same,IC50,[2],< 0.1 µM
O=Cc1c(O)ccc2c(=O)c(-c3cnn(-c4ccccc4)c3)coc12 [Example 40],EC50,[1]; [3],> 10 µM
same,IC50,[2],< 1 µM
Cc1c(-c2ccc(N3CCN(C)CC3)cc2)c(=O)oc2c(C=O)c(O)c(F)cc12 [Example 24],EC50,[1]; [3],< 10 µM
same,IC50,[2],< 0.1 µM
COCc1c(CCC(=O)NCCN2CCOCC2)c(=O)oc2c(C=O)c(O)c(OC)cc12 [Example 140],EC50,[1]; [3],> 10 µM
same,IC50,[2],< 1 µM
CCc1cc2c(=O)c(-c3nc(C)cs3)coc2c(C=O)c1O [Example 39],EC50,[1]; [3],> 10 µM
same,IC50,[2],< 0.1 µM
Cc1nc(-c2c(C)c3ccc(O)c(C=O)c3oc2=O)sc1C(=O)N1CCN(C)CC1 [Example 110],EC50,[1],< 10 µM
same,IC50,[2],< 1 µM
COCc1cc(=O)oc2c(C=O)c(O)c(OC)cc12 [Example 136],EC50,[1]; [3],< 10 µM
same,IC50,[2],< 1 µM
COCCNC(=O)CCc1c(C)c2c(OCCOC)cc(O)c(C=O)c2oc1=O [Example 152],EC50,[1]; [3],< 10 µM
same,IC50,[2],< 1 µM
CCOC(=O)c1sc(-c2cc3ccc(O)c(C=O)c3oc2=O)nc1C [Example 68],EC50,[1]; [3],< 10 µM
same,IC50,[2],< 0.1 µM
COCCNC(=O)CCc1c(COC)c2cc(OC)c(O)c(C=O)c2oc1=O [Example 138],EC50,[1]; [3],> 10 µM
same,IC50,[2],< 1 µM
Cc1nc(N2CCc3c(ccc(O)c3C=O)C2)sc1C(=O)NC1CCN(C)CC1 [Example 36],EC50,[1]; [3],> 10 µM
same,IC50,[2],< 1 µM
Cc1c(-c2ccc(C(=O)N(C)C)cc2)c(=O)oc2c(C=O)c(O)ccc12 [Example 17],EC50,[1]; [3],< 10 µM
same,IC50,[2],< 0.1 µM
Cc1c(CC(=O)N2CCN(C)CC2)c(=O)oc2c(C=O)c(O)ccc12 [Example 130],EC50,[1],< 10 µM
same,IC50,[2],< 0.1 µM
COCCNC(=O)CCc1c(C)c2cc(OCCOC)c(O)c(C=O)c2oc1=O [Example 184],EC50,[1]; [3],< 10 µM
same,IC50,[2],< 0.1 µM
COc1cc2c(C)c(CC(=O)NCCN(C)C)c(=O)oc2c(C=O)c1O [Example 170],EC50,[1]; [3],< 10 µM
same,IC50,[2],< 1 µM
CCOC(=O)Cc1c(C)c2cc(OC)c(O)c(C=O)c2oc1=O [Example 131],EC50,[1],< 10 µM
same,IC50,[2],< 0.1 µM
COc1cc2c(C)c(-c3ccc(C(=O)N4CCOCC4)s3)c(=O)oc2c(C=O)c1O [Example 142],EC50,[1]; [3],< 10 µM
same,IC50,[2],< 0.1 µM
COc1cc(O)c(C=O)c2oc(=O)c(CC(=O)N3CCOCC3)c(C)c12 [Example 177],EC50,[1]; [3],< 10 µM
same,IC50,[2],< 0.1 µM
COc1cc(O)c(C=O)c2oc(=O)c(CC(=O)NCCN(C)C)c(C)c12 [Example 180],EC50,[1]; [3],< 10 µM
same,IC50,[2],< 0.1 µM
COCCOc1cc2c(C)c(CCC(=O)N3CCOCC3)c(=O)oc2c(C=O)c1O [Example 181],EC50,[1]; [3],< 10 µM
same,IC50,[2],< 0.1 µM
O=Cc1c(O)ccc2nc(-c3ccc(C(=O)NCCN4CCOCC4)cc3)ccc12 [Example 45],EC50,[1]; [3],< 10 µM
same,IC50,[2],< 1 µM
COc1cc2c(C(C)C)cc(=O)oc2c(C=O)c1O [Example 146],EC50,[1]; [3],< 10 µM
same,IC50,[2],< 0.1 µM
COc1cc2c3c(c(=O)oc2c(C=O)c1O)CCC3 [Example 198],EC50,[1],< 10 µM
same,IC50,[2],> 1 µM
Cc1c(-c2ccc(C(=O)N3CCOCC3)cc2)c(=O)oc2c(C=O)c(O)c(Cl)cc12 [Example 67],EC50,[1]; [3],> 10 µM
same,IC50,[2],< 1 µM
COCCOc1cc(O)c(C=O)c2oc(=O)c(CCC(=O)NCCN(C)C)c(C)c12 [Example 157],EC50,[1]; [3],> 10 µM
same,IC50,[2],< 1 µM
COCCOc1cc(O)c(C=O)c2oc(=O)c(CCC(=O)N3CCN(C)CC3)c(C)c12 [Example 154],EC50,[1],< 10 µM
same,IC50,[2],< 0.1 µM
O=Cc1c(O)ccc2nc(-c3cccc(C(=O)NCCN4CCOCC4)c3)ccc12 [Example 46],EC50,[1],< 10 µM
same,IC50,[2],< 0.1 µM
COCc1c(CCC(=O)N2CCOCC2)c(=O)oc2c(C=O)c(O)c(OC)cc12 [Example 139],EC50,[1]; [3],< 10 µM
same,IC50,[2],< 0.1 µM
COCCNC(=O)c1ccc(-c2c(C)c3cc(Cl)c(O)c(C=O)c3oc2=O)cc1 [Example 150],EC50,[1],> 10 µM
same,IC50,[2],< 1 µM
COc1cc2c(C)c(CC(=O)NCCO)c(=O)oc2c(C=O)c1O [Example 148],EC50,[1]; [3],> 10 µM
same,IC50,[2],< 0.1 µM
CN1CCN(C(=O)c2cnc(N3CCc4c(ccc(O)c4C=O)C3)s2)CC1 [Example 33],EC50,[1],> 10 µM
same,IC50,[2],< 10 µM
CN1CCN(C(=O)c2ccc(-c3ccc4c(C=O)c(O)ccc4n3)cc2)CC1 [Example 41],EC50,[1]; [3],< 10 µM
same,IC50,[2],< 1 µM
CN1CCN(C(=O)c2cccc(-c3ccc4c(C=O)c(O)ccc4n3)c2)CC1 [Example 42],EC50,[1]; [3],< 10 µM
same,IC50,[2],< 1 µM
O=Cc1c(O)ccc2nc(-c3cccc(C(=O)O)c3)[nH]c12 [Example 64],EC50,[1]; [3],> 10 µM
same,IC50,[2],< 0.1 µM
COc1cc2c(C)c(CCC(=O)NCCO)c(=O)oc2c(C=O)c1O [Example 147],EC50,[1]; [3],> 10 µM
same,IC50,[2],< 0.1 µM
COc1cc(O)c(C=O)c2oc(=O)cc(C)c12 [Example 120],EC50,[1],< 10 µM
same,IC50,[2],< 1 µM
COCCNC(=O)CCc1c(C)c2c(OC)cc(O)c(C=O)c2oc1=O [Example 194],EC50,[1]; [3],< 10 µM
same,IC50,[2],< 0.1 µM
Cc1c(/C=C/C(=O)N2CCN(C)CC2)c(=O)oc2c(C=O)c(O)ccc12 [Example 112],EC50,[1]; [3],< 10 µM
same,IC50,[2],< 0.1 µM
Cc1nc(-c2cc3ccc(O)c(C=O)c3oc2=O)sc1C(=O)N1CCN(C)CC1 [Example 108],EC50,[1]; [3],< 10 µM
same,IC50,[2],< 0.1 µM
COc1cc2c(C)c(CCC(=O)NCCN(C)C)c(=O)oc2c(C=O)c1O [Example 175],EC50,[1]; [3],> 10 µM
same,IC50,[2],< 1 µM
Cc1cc(=O)oc2c(C=O)c(O)c(Cl)cc12 [Example 22],EC50,[1]; [3],< 10 µM
same,IC50,[2],< 0.1 µM
COCCOc1cc2c(C)c(CCC(=O)N3CCN(C)CC3)c(=O)oc2c(C=O)c1O [Example 182],EC50,[1]; [3],< 10 µM
same,IC50,[2],< 0.1 µM
COc1cc2c(C)c(-c3ccc(C(=O)NCCN4CCOCC4)s3)c(=O)oc2c(C=O)c1O [Example 143],EC50,[1]; [3],< 10 µM
same,IC50,[2],< 1 µM
COc1cc(O)c(C=O)c2oc(=O)c(CC(=O)NCCN3CCOCC3)c(C)c12 [Example 179],EC50,[1]; [3],< 10 µM
same,IC50,[2],< 1 µM
O=Cc1c(O)ccc2nc(SCC(=O)O)[nH]c12 [Example 63],EC50,[1]; [3],> 10 µM
same,IC50,[2],< 0.1 µM
COc1cc2c(C(F)(F)F)cc(=O)oc2c(C=O)c1O [Example 197],EC50,[1]; [3],< 10 µM
same,IC50,[2],< 1 µM
COCCOc1cc(O)c(C=O)c2oc(=O)cc(C)c12 [Example 121],EC50,[1],< 10 µM
same,IC50,[2],< 0.1 µM
CN1CCN(C(=O)c2cnc(-c3cc4ccc(O)c(C=O)c4oc3=O)s2)CC1 [Example 107],EC50,[1]; [3],< 10 µM
same,IC50,[2],< 0.1 µM
COc1cc2c(C)c(C(C)C)c(=O)oc2c(C=O)c1O [Example 200],EC50,[1],> 10 µM
same,IC50,[2],< 0.1 µM
COc1cc2c(C)c(CCC(=O)N3CCOCC3)c(=O)oc2c(C=O)c1O [Example 172],EC50,[1]; [3],< 10 µM
same,IC50,[2],< 0.1 µM
